These results are taken from patent US12497365B2, “4-pyridinyl formamide compound or derivative thereof, preparation method therefor, herbicidal composition and use thereof” (Qingdao Kingagroot Chemical Compound Co., Ltd., priority 2019, dated 2025).

Common to all, as to assay: Weeding effect in post-emergence stage
Common to all, as to type: in vivo
What all share (details): active ingredient 2000 g/ha, 3 weeks after application, fresh weight control rate

The test system of assay [1] is Amaranthus retroflexus L. The essentials:
(§1)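 Weeds sown in soil-filled pots under 0.5-2 cm cover were grown in a greenhouse and sprayed at the 2-3 leaf stage, 2 weeks after sowing. Compounds in acetone with Tween 80 and 1.5 liter/ha methyl oleate concentrate were applied at 2000, 1000, 500, 250 or 125 g/ha. Fresh weight control rate was scored after 3 weeks.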

Assay [2] relates to Chenopodium album. In short, it runs like this:
as §1

Assay [3] relates to Abutilon theophrasti. In short, it runs like this: as §1
Assay [4] relates to Descurainia sophia. The essentials: as §1

On to `Cc1ccc(-c2nccc(C(=O)Nc3nnnn3C)c2Cl)c(C)c1` [Compound 1-59], for which the “Weeding effect, activity level (growth control rate), Amaranthus retroflexus L.” value (“Weeding effect … Amaranthus retroflexus L.” for short) in assay [1] is listed as 5 (Level 5: growth control rate is above 85%). The “Weeding effect, activity level (growth control rate), Chenopodium album” value (“Weeding effect … Chenopodium album” for short) in assay [2] is 5 (Level 5: growth control rate is above 85%). In addition, the “Weeding effect, activity level (growth control rate), Abutilon theophrasti” value (“Weeding effect … Abutilon theophrasti” for short) in assay [3] is reported as 5 (Level 5: growth control rate is above 85%). In assay [4], the “Weeding effect, activity level (growth control rate), Descurainia sophia” value (“Weeding effect … Descurainia sophia” below) was 5 (Level 5: growth control rate is above 85%).
For `Cc1cc(C)cc(-c2nccc(C(=O)Nc3nnnn3C)c2Cl)c1` [Compound 1-60], in assay [1], the “Weeding effect … Amaranthus retroflexus L.” value is 5 (Level 5: growth control rate is above 85%). In addition, the “Weeding effect … Chenopodium album” value in assay [2] is given as 5 (Level 5: growth control rate is above 85%). Besides, the “Weeding effect … Abutilon theophrasti” value in assay [3] was 5 (Level 5: growth control rate is above 85%). Besides, the “Weeding effect … Descurainia sophia” value in assay [4] is given as 5 (Level 5: growth control rate is above 85%).
Regarding `Cn1nnnc1NC(=O)c1ccnc(-c2cc(C(C)(C)C)cc(C(C)(C)C)c2)c1Cl` [Compound 1-61], the “Weeding effect … Amaranthus retroflexus L.” value in assay [1] is 5 (Level 5: growth control rate is above 85%). Further, the “Weeding effect … Chenopodium album” value in assay [2] was 5 (Level 5: growth control rate is above 85%). Also, in assay [3], the “Weeding effect … Abutilon theophrasti” value is 5 (Level 5: growth control rate is above 85%). Also, the “Weeding effect … Descurainia sophia” value in assay [4] is 5 (Level 5: growth control rate is above 85%).
As for `Cn1nnnc1NC(=O)c1ccnc(-c2cccc(F)c2F)c1Cl` [Compound 1-62], in assay [1], the “Weeding effect … Amaranthus retroflexus L.” value is recorded as 5 (Level 5: growth control rate is above 85%). Also, in assay [2], the “Weeding effect … Chenopodium album” value is 5 (Level 5: growth control rate is above 85%). The “Weeding effect … Abutilon theophrasti” value in assay [3] is 5 (Level 5: growth control rate is above 85%). In assay [4], the “Weeding effect … Descurainia sophia” value is recorded as 5 (Level 5: growth control rate is above 85%).
For `Cn1nnnc1NC(=O)c1ccnc(-c2cc(F)ccc2F)c1Cl` [Compound 1-63], the “Weeding effect … Amaranthus retroflexus L.” value in assay [1] is on record as 5 (Level 5: growth control rate is above 85%). In addition, the “Weeding effect … Chenopodium album” value in assay [2] is recorded as 5 (Level 5: growth control rate is above 85%). For the same compound, the “Weeding effect … Abutilon theophrasti” value in assay [3] is 5 (Level 5: growth control rate is above 85%). Moreover, the “Weeding effect … Descurainia sophia” value in assay [4] is 5 (Level 5: growth control rate is above 85%).
With `Cn1nnnc1NC(=O)c1ccnc(-c2ccc(F)cc2F)c1Cl` [Compound 1-64], the “Weeding effect … Amaranthus retroflexus L.” value in assay [1] is recorded as 5 (Level 5: growth control rate is above 85%). Besides, the “Weeding effect … Chenopodium album” value in assay [2] is listed as 5 (Level 5: growth control rate is above 85%). Moreover, the “Weeding effect … Abutilon theophrasti” value in assay [3] is recorded as 5 (Level 5: growth control rate is above 85%). Moreover, in assay [4], the “Weeding effect … Descurainia sophia” value is 5 (Level 5: growth control rate is above 85%).
For `Cn1nnnc1NC(=O)c1ccnc(-c2cc(F)cc(F)c2)c1Cl` [Compound 1-65], the “Weeding effect … Amaranthus retroflexus L.” value in assay [1] is given as 5 (Level 5: growth control rate is above 85%). In addition, the “Weeding effect … Chenopodium album” value in assay [2] is 5 (Level 5: growth control rate is above 85%). Besides, the “Weeding effect … Abutilon theophrasti” value in assay [3] was 5 (Level 5: growth control rate is above 85%). For the same compound, the “Weeding effect … Descurainia sophia” value in assay [4] is recorded as 5 (Level 5: growth control rate is above 85%).
As for `Cn1nnnc1NC(=O)c1ccnc(-c2ccc(F)c(F)c2)c1Cl` [Compound 1-66], the “Weeding effect … Amaranthus retroflexus L.” value in assay [1] is 5 (Level 5: growth control rate is above 85%). Besides, the “Weeding effect … Chenopodium album” value in assay [2] was 5 (Level 5: growth control rate is above 85%). For the same compound, the “Weeding effect … Abutilon theophrasti” value in assay [3] is 5 (Level 5: growth control rate is above 85%). Besides, the “Weeding effect … Descurainia sophia” value in assay [4] is on record as 5 (Level 5: growth control rate is above 85%).
As to `Cc1ccc(F)c(-c2nccc(C(=O)Nc3nnnn3C)c2Cl)c1` [Compound 1-67], in assay [1], the “Weeding effect … Amaranthus retroflexus L.” value is listed as 5 (Level 5: growth control rate is above 85%). In assay [2], the “Weeding effect … Chenopodium album” value is on record as 5 (Level 5: growth control rate is above 85%). The “Weeding effect … Abutilon theophrasti” value in assay [3] was 5 (Level 5: growth control rate is above 85%). For the same compound, the “Weeding effect … Descurainia sophia” value in assay [4] is reported as 5 (Level 5: growth control rate is above 85%).
In the case of `Cc1ccc(-c2nccc(C(=O)Nc3nnnn3C)c2Cl)cc1F` [Compound 1-68], the “Weeding effect … Amaranthus retroflexus L.” value in assay [1] is recorded as 5 (Level 5: growth control rate is above 85%). In assay [2], the “Weeding effect … Chenopodium album” value is on record as 5 (Level 5: growth control rate is above 85%). The “Weeding effect … Abutilon theophrasti” value in assay [3] is listed as 5 (Level 5: growth control rate is above 85%). In assay [4], the “Weeding effect … Descurainia sophia” value is given as 5 (Level 5: growth control rate is above 85%).
Turning to `Cc1ccc(-c2nccc(C(=O)Nc3nnnn3C)c2Cl)c(F)c1` [Compound 1-69], in assay [1], the “Weeding effect … Amaranthus retroflexus L.” value is reported as 5 (Level 5: growth control rate is above 85%). Further, the “Weeding effect … Chenopodium album” value in assay [2] is reported as 5 (Level 5: growth control rate is above 85%). Further, the “Weeding effect … Abutilon theophrasti” value in assay [3] is reported as 5 (Level 5: growth control rate is above 85%). In addition, the “Weeding effect … Descurainia sophia” value in assay [4] is listed as 5 (Level 5: growth control rate is above 85%).
As for `COc1cccc(F)c1-c1nccc(C(=O)Nc2nnnn2C)c1Cl` [Compound 1-70], the “Weeding effect … Amaranthus retroflexus L.” value in assay [1] is on record as 5 (Level 5: growth control rate is above 85%). Further, in assay [2], the “Weeding effect … Chenopodium album” value is given as 5 (Level 5: growth control rate is above 85%). Moreover, the “Weeding effect … Abutilon theophrasti” value in assay [3] is listed as 5 (Level 5: growth control rate is above 85%). Moreover, the “Weeding effect … Descurainia sophia” value in assay [4] is listed as 5 (Level 5: growth control rate is above 85%).
On to `COc1cc(F)cc(-c2nccc(C(=O)Nc3nnnn3C)c2Cl)c1` [Compound 1-71], for which the “Weeding effect … Amaranthus retroflexus L.” value in assay [1] was 5 (Level 5: growth control rate is above 85%). Besides, the “Weeding effect … Chenopodium album” value in assay [2] was 5 (Level 5: growth control rate is above 85%). Further, in assay [3], the “Weeding effect … Abutilon theophrasti” value is 5 (Level 5: growth control rate is above 85%). Also, the “Weeding effect … Descurainia sophia” value in assay [4] is reported as 5 (Level 5: growth control rate is above 85%).
With `COc1cccc(-c2nccc(C(=O)Nc3nnnn3C)c2Cl)c1F` [Compound 1-72], the “Weeding effect … Amaranthus retroflexus L.” value in assay [1] is recorded as 5 (Level 5: growth control rate is above 85%). In addition, the “Weeding effect … Chenopodium album” value in assay [2] is 5 (Level 5: growth control rate is above 85%). Further, the “Weeding effect … Abutilon theophrasti” value in assay [3] was 5 (Level 5: growth control rate is above 85%). For the same compound, the “Weeding effect … Descurainia sophia” value in assay [4] was 5 (Level 5: growth control rate is above 85%).
Consider `Cn1nnnc1NC(=O)c1ccnc(-c2ccc(F)cc2C(F)(F)F)c1Cl` [Compound 1-73], for which the “Weeding effect … Amaranthus retroflexus L.” value in assay [1] is reported as 5 (Level 5: growth control rate is above 85%). Besides, the “Weeding effect … Chenopodium album” value in assay [2] is 5 (Level 5: growth control rate is above 85%). Besides, the “Weeding effect … Abutilon theophrasti” value in assay [3] is reported as 5 (Level 5: growth control rate is above 85%). For the same compound, the “Weeding effect … Descurainia sophia” value in assay [4] is 5 (Level 5: growth control rate is above 85%).
Turning to `Cn1nnnc1NC(=O)c1ccnc(-c2ccc(C(F)(F)F)cc2F)c1Cl` [Compound 1-74], the “Weeding effect … Amaranthus retroflexus L.” value in assay [1] was 5 (Level 5: growth control rate is above 85%). For the same compound, the “Weeding effect … Chenopodium album” value in assay [2] is 5 (Level 5: growth control rate is above 85%). Further, the “Weeding effect … Abutilon theophrasti” value in assay [3] is recorded as 5 (Level 5: growth control rate is above 85%). In assay [4], the “Weeding effect … Descurainia sophia” value is given as 5 (Level 5: growth control rate is above 85%).
`Cn1nnnc1NC(=O)c1ccnc(-c2cc(C(F)(F)F)ccc2F)c1Cl` [Compound 1-75]: in assay [1], the “Weeding effect … Amaranthus retroflexus L.” value is on record as 5 (Level 5: growth control rate is above 85%). The “Weeding effect … Chenopodium album” value in assay [2] is listed as 5 (Level 5: growth control rate is above 85%). In addition, the “Weeding effect … Abutilon theophrasti” value in assay [3] is reported as 5 (Level 5: growth control rate is above 85%). In assay [4], the “Weeding effect … Descurainia sophia” value is listed as 5 (Level 5: growth control rate is above 85%).
For `Cn1nnnc1NC(=O)c1ccnc(-c2ccc(C(F)(F)F)cc2C(F)(F)F)c1Cl` [Compound 1-76], in assay [1], the “Weeding effect … Amaranthus retroflexus L.” value is 5 (Level 5: growth control rate is above 85%). In addition, the “Weeding effect … Chenopodium album” value in assay [2] is given as 5 (Level 5: growth control rate is above 85%). In addition, the “Weeding effect … Abutilon theophrasti” value in assay [3] is given as 5 (Level 5: growth control rate is above 85%). The “Weeding effect … Descurainia sophia” value in assay [4] is 5 (Level 5: growth control rate is above 85%).
`Cn1nnnc1NC(=O)c1ccnc(-c2cc(C(F)(F)F)cc(C(F)(F)F)c2)c1Cl` [Compound 1-77]: the “Weeding effect … Amaranthus retroflexus L.” value in assay [1] was 5 (Level 5: growth control rate is above 85%). For the same compound, the “Weeding effect … Chenopodium album” value in assay [2] is 5 (Level 5: growth control rate is above 85%). Moreover, the “Weeding effect … Abutilon theophrasti” value in assay [3] was 5 (Level 5: growth control rate is above 85%). Further, in assay [4], the “Weeding effect … Descurainia sophia” value was 5 (Level 5: growth control rate is above 85%).
